Results as given in the Kinase Knowledgebase extract (Sharma et al. 2016).
pIC50: −log10 of the molar value.

Biological target: CDK2 (human) (UniProt P24941)
Test: Enzyme Assay

SMILES	pIC50
CN(C)CCCn1ccc2c(-c3ccnc(Nc4cccc(Cl)c4)n3)cccc21	> 5.30
Cc1ccc2[nH]ccc2c1-c1ccnc(Nc2cccc(S(C)(=O)=O)c2)n1	> 5.30
COc1cnc(Nc2cccc(S(N)(=O)=O)c2)nc1-c1cccc2[nH]ccc12	> 5.30
CC(C)(C)NC(=O)Cn1ccc2c(-c3ccnc(Nc4cccc(Cl)c4)n3)cccc21	> 5.30
CN(C)C(=O)Cn1ccc2c(-c3ccnc(Nc4cccc(Cl)c4)n3)cccc21	> 5.30
O=C(Cn1ccc2c(-c3ccnc(Nc4cccc(Cl)c4)n3)cccc21)NCC1CCCN1 (stereo unspecified)	> 5.30
Cc1cnc(Nc2cccc(S(N)(=O)=O)c2)nc1-c1cccc2[nH]ccc12	> 5.30
NS(=O)(=O)c1cccc(Nc2ncc(F)c(-c3cccc4[nH]ccc34)n2)c1	> 5.30
OCCn1ccc2c(-c3ccnc(Nc4cccc(Cl)c4)n3)cccc21	> 5.30
OCCCn1ccc2c(-c3ccnc(Nc4cccc(Cl)c4)n3)cccc21	> 5.30
Cc1cnc(Nc2cccc(S(C)(=O)=O)c2)nc1-c1cccc2[nH]ccc12	> 5.30
Cn1ccc2c(-c3ccnc(Nc4cccc(Cl)c4)n3)cccc21	> 5.30
CN(C)CCn1ccc2c(-c3ccnc(Nc4cccc(Cl)c4)n3)cccc21	> 5.30
CS(=O)(=O)c1cccc(Nc2nccc(-c3cccc4[nH]ccc34)n2)c1	> 5.30
O=C(Cn1ccc2c(-c3ccnc(Nc4cccc(Cl)c4)n3)cccc21)NCCO	> 5.30
CNC(=O)Cn1ccc2c(-c3ccnc(Nc4cccc(Cl)c4)n3)cccc21	> 5.30
